# Assay results: ChEMBL document CHEMBL4000200, “Structure-activity relationships of 4-hydroxy-4-biaryl-proline acylsulfonamide tripeptides: A series of potent NS3 protease inhibitors for the treatment of hepatitis C virus” (Bioorg Med Chem Lett, 2017)
# What was measured:
# [1] = Inhibition of HCV genotype 1a NS3/4A protease; parameters: species or system Hepatitis C virus subtype 1a
# [2] = tested on: Hepatitis C virus; test: Antiviral activity against HCV genotype 1b by cell based replicon assay; assay type: functional, Hepacivirus hominis
# [3] = tested on: Heart; test: Cardiotoxicity in Langendorff perfused rabbit heart assessed as heart rate at 10 uM perfused for 10 mins (reference value: -1 +/- 1%); assay type: toxicity, tissue-based, Oryctolagus cuniculus
# [4] = tested on: Heart; test: Cardiotoxicity in Langendorff perfused rabbit heart assessed as heart rate at 10 uM perfused for 20 mins (reference value: -3 +/- 3%); assay type: toxicity, tissue-based, Oryctolagus cuniculus
# [5] = tested on: Heart; test: Cardiotoxicity in Langendorff perfused rabbit heart assessed as sinoatrial node recovery time at 10 uM perfused for 10 mins (reference value: 3 +/- 1%); assay type: toxicity, tissue-based, Oryctolagus cuniculus
# [6] = tested on: Heart; test: Cardiotoxicity in Langendorff perfused rabbit heart assessed as sinoatrial node recovery time at 10 uM perfused for 20 mins (reference value: 4 +/- 5%); assay type: toxicity, tissue-based, Oryctolagus cuniculus
# [7] = tested on: Heart; test: Cardiotoxicity in Langendorff perfused rabbit heart assessed as coronary flow at 10 uM perfused for 10 mins (reference value: -4 +/- 6%); assay type: toxicity, tissue-based, Oryctolagus cuniculus
# [8] = tested on: Heart; test: Cardiotoxicity in Langendorff perfused rabbit heart assessed as coronary flow at 10 uM perfused for 20 mins (reference value: -6 +/- 8%); assay type: toxicity, tissue-based, Oryctolagus cuniculus
# [9] = Permeability of the compound at pH 5.5 by PAMPA; assay type: physicochemical; conditions: read-out: permeability
# [10] = Permeability of the compound at pH 7.4 by PAMPA; assay type: physicochemical; conditions: read-out: permeability
# [11] = AUC in id dosed rat plasma after 4 hrs; assay type: ADME, organism-based; parameters: time < 4 hr
# [12] = Drug uptake in id dosed rat liver after 4 hrs; assay type: ADME, organism-based; conditions: read-out: Drug uptake
# [13] = Oral bioavailability in rat at 15 mg/kg after 24 hrs; assay type: ADME, organism-based; conditions: in vivo
# [14] = AUC in rat at 15 mg/kg, po after 24 hrs; assay type: ADME, organism-based; parameters: dose 15 mg/kg, time < 24 hr, route oral; conditions: in vivo
# [15] = Clearance in rat at 5 mg/kg, iv; assay type: ADME, organism-based; conditions: in vivo
# [16] = Half life in rat at 5 mg/kg, iv; assay type: ADME, organism-based; conditions: in vivo
# [17] = Drug uptake in rat liver at 15 mg/kg, po after 24 hrs; assay type: ADME, organism-based; conditions: read-out: Drug uptake
Structure (SMILES),IC50 [1] [µM],EC50 [2] [µM],other results
C=C[C@@H]1C[C@]1(NC(=O)[C@@H]1C[C@@](O)(c2cccc(Cl)c2)CN1C(=O)[C@@H](NC(=O)OC(C)(C)C)C(C)(C)C)C(=O)NS(=O)(=O)C1CC1,0.08,3.66,–
C=C[C@@H]1C[C@]1(NC(=O)[C@@H]1C[C@@](O)(c2ccc(-c3nccs3)cc2)CN1C(=O)[C@@H](NC(=O)OC(C)(C)C)C(C)(C)C)C(=O)NS(=O)(=O)C1CC1,0.002,0.041,–
C=C[C@@H]1C[C@]1(NC(=O)[C@@H]1C[C@@H](Oc2ncc(OC)c3ccc(Cl)cc23)CN1C(=O)[C@@H](NC(=O)OC(C)(C)C)C(C)(C)C)C(=O)NS(=O)(=O)C1CC1,–,–,Activity [3]: 1%; Activity [4]: -1%; Activity [5]: -1%; Activity [6]: 4%; Activity [7]: -3%; Activity [8]: -1%
C=C[C@@H]1C[C@]1(NC(=O)[C@@H]1C[C@@](O)(c2ccc(Oc3ccccc3)cc2)CN1C(=O)[C@@H](NC(=O)OC(C)(C)C)C(C)(C)C)C(=O)NS(=O)(=O)C1CC1,0.05,0.265,–
C=C[C@@H]1C[C@]1(NC(=O)[C@@H]1C[C@@](O)(c2ccc(-n3cccc3)cc2)CN1C(=O)[C@@H](NC(=O)OC(C)(C)C)C(C)(C)C)C(=O)NS(=O)(=O)C1CC1,0.007,0.097,–
C=C[C@@H]1C[C@]1(NC(=O)[C@@H]1C[C@@](O)(c2cccc(N(C)C)c2)CN1C(=O)[C@@H](NC(=O)OC(C)(C)C)C(C)(C)C)C(=O)NS(=O)(=O)C1CC1,0.96,3.4,–
C=C[C@@H]1C[C@]1(NC(=O)[C@@H]1CC(=O)CN1C(=O)[C@@H](NC(=O)OC(C)(C)C)C(C)(C)C)C(=O)NS(=O)(=O)C1CC1,3.9,70.7,–
C=C[C@@H]1C[C@]1(NC(=O)[C@@H]1C[C@@](O)(c2ccc(C)c(F)c2)CN1C(=O)[C@@H](NC(=O)OC(C)(C)C)C(C)(C)C)C(=O)NS(=O)(=O)C1CC1,0.568,4.24,–
C=C[C@@H]1C[C@]1(NC(=O)[C@@H]1C[C@@](O)(c2cc(F)ccc2OC)CN1C(=O)[C@@H](NC(=O)OC(C)(C)C)C(C)(C)C)C(=O)NS(=O)(=O)C1CC1,0.728,3.94,–
C=C[C@@H]1C[C@]1(NC(=O)[C@@H]1C[C@@](O)(c2nc3ccccc3s2)CN1C(=O)[C@@H](NC(=O)OC(C)(C)C)C(C)(C)C)C(=O)NS(=O)(=O)C1CC1,0.127,1.12,–
C=C[C@@H]1C[C@]1(NC(=O)[C@@H]1C[C@@](O)(c2cccc(F)c2)CN1C(=O)[C@@H](NC(=O)OC(C)(C)C)C(C)(C)C)C(=O)NS(=O)(=O)C1CC1,0.057,4.06,–
C=C[C@@H]1C[C@]1(NC(=O)[C@@H]1C[C@@](O)(c2ccc(OC)cc2)CN1C(=O)[C@@H](NC(=O)OC(C)(C)C)C(C)(C)C)C(=O)NS(=O)(=O)C1CC1,0.105,1.47,–
C=C[C@@H]1C[C@]1(NC(=O)[C@@H]1C[C@@H](Oc2nccc3cc(OC)ccc23)CN1C(=O)[C@@H](NC(=O)OC(C)(C)C)C(C)(C)C)C(=O)NS(=O)(=O)C1CC1,0.001 to 0.002,–,Papp [9]: 57.4 ×10⁻⁶ cm/s; Papp [10]: 17.8 ×10⁻⁶ cm/s; AUC at 4 h [11]: 10.4 µM·h; concentration at 4 h [12]: 64700 ng/g; Activity [3]: -13%; Activity [4]: -32%; Activity [5]: 69%; Activity [6]: 360%; Activity [7]: 12%; Activity [8]: 10%
C=C[C@@H]1C[C@]1(NC(=O)[C@@H]1C[C@@](O)(c2cccc(OC)c2)CN1C(=O)[C@@H](NC(=O)OC(C)(C)C)C(C)(C)C)C(=O)NS(=O)(=O)C1CC1,0.052,3.7,–
C=C[C@@H]1C[C@]1(NC(=O)[C@@H]1C[C@@](O)(c2cccc(OC(C)C)c2)CN1C(=O)[C@@H](NC(=O)OC(C)(C)C)C(C)(C)C)C(=O)NS(=O)(=O)C1CC1,0.101,6.25,–
C=C[C@@H]1C[C@]1(NC(=O)[C@@H]1C[C@@](O)(c2cc(C)cc(C)c2)CN1C(=O)[C@@H](NC(=O)OC(C)(C)C)C(C)(C)C)C(=O)NS(=O)(=O)C1CC1,0.08,6.45,–

Structure (SMILES),IC50 [1] [µM],EC50 [2] [µM],other results
C=C[C@@H]1C[C@]1(NC(=O)[C@@H]1C[C@@](O)(c2cccc(C(C)C)c2)CN1C(=O)[C@@H](NC(=O)OC(C)(C)C)C(C)(C)C)C(=O)NS(=O)(=O)C1CC1,0.703,8.37,–
C=C[C@@H]1C[C@]1(NC(=O)[C@@H]1C[C@@](O)(c2cccc(-c3ccc(OC)cc3)c2)CN1C(=O)[C@@H](NC(=O)OC(C)(C)C)C(C)(C)C)C(=O)NS(=O)(=O)C1CC1,0.62,3.21,–
C=C[C@@H]1C[C@]1(NC(=O)[C@@H]1C[C@@](O)(c2ccc3ccccc3c2)CN1C(=O)[C@@H](NC(=O)OC(C)(C)C)C(C)(C)C)C(=O)NS(=O)(=O)C1CC1,0.026,0.412,–
C=C[C@@H]1C[C@]1(NC(=O)[C@@H]1C[C@@](OC)(c2ccc(-c3ccccc3)cc2)CN1C(=O)[C@@H](NC(=O)OC(C)(C)C)C(C)(C)C)C(=O)NS(=O)(=O)C1CC1,0.002,0.009,Papp [9]: 38.1 ×10⁻⁶ cm/s; Papp [10]: 43.8 ×10⁻⁶ cm/s; AUC at 4 h [11]: 2.45 µM·h; concentration at 4 h [12]: 195000 ng/g; bioavailability [13]: 58%; AUC at 24 h [14]: 14.1 µM·h; clearance [15]: 17.8 mL/min/kg; half-life [16]: 4.6 h; concentration at 24 h [17]: 1100 nM; Activity [3]: -6%; Activity [4]: -3%; Activity [5]: 8%; Activity [6]: 7%; Activity [7]: 27%; Activity [8]: 20%
C=C[C@@H]1C[C@]1(NC(=O)[C@@H]1C[C@@](O)(c2cccc(CN3CCOCC3)c2)CN1C(=O)[C@@H](NC(=O)OC(C)(C)C)C(C)(C)C)C(=O)NS(=O)(=O)C1CC1,0.162,3.46,–
C=CC[C@]1(O)C[C@@H](C(=O)N[C@]2(C(=O)NS(=O)(=O)C3CC3)C[C@H]2C=C)N(C(=O)[C@@H](NC(=O)OC(C)(C)C)C(C)(C)C)C1,1.5,30.5,–
C=C[C@@H]1C[C@]1(NC(=O)[C@@H]1C[C@@](O)(c2cc(C)ccc2C)CN1C(=O)[C@@H](NC(=O)OC(C)(C)C)C(C)(C)C)C(=O)NS(=O)(=O)C1CC1,0.136,2.31,–
C=C[C@@H]1C[C@]1(NC(=O)[C@@H]1C[C@@](O)(c2ccccc2)CN1C(=O)[C@@H](NC(=O)OC(C)(C)C)C(C)(C)C)C(=O)NS(=O)(=O)C1CC1,0.14,2.36,–
C=C[C@@H]1C[C@]1(NC(=O)[C@@H]1C[C@@](O)(c2ccc(-c3ccccc3OC)cc2)CN1C(=O)[C@@H](NC(=O)OC(C)(C)C)C(C)(C)C)C(=O)NS(=O)(=O)C1CC1,0.005,0.024,–
C=C[C@@H]1C[C@]1(NC(=O)[C@@H]1C[C@@](O)(c2ccccc2CN2CCOCC2)CN1C(=O)[C@@H](NC(=O)OC(C)(C)C)C(C)(C)C)C(=O)NS(=O)(=O)C1CC1,0.291,4.95,–
C=C[C@@H]1C[C@]1(NC(=O)[C@@H]1C[C@@](O)(c2ccc(F)c(C)c2)CN1C(=O)[C@@H](NC(=O)OC(C)(C)C)C(C)(C)C)C(=O)NS(=O)(=O)C1CC1,0.134,7.7,–
C=C[C@@H]1C[C@]1(NC(=O)[C@@H]1C[C@@](O)(c2ccc(F)cc2)CN1C(=O)[C@@H](NC(=O)OC(C)(C)C)C(C)(C)C)C(=O)NS(=O)(=O)C1CC1,0.19,2.47,–
C=C[C@@H]1C[C@]1(NC(=O)[C@@H]1C[C@@](O)(c2cccc(C)c2)CN1C(=O)[C@@H](NC(=O)OC(C)(C)C)C(C)(C)C)C(=O)NS(=O)(=O)C1CC1,0.076,3.27,–
C=C[C@@H]1C[C@]1(NC(=O)[C@@H]1C[C@@](O)(c2ccc(-c3ccccn3)cc2)CN1C(=O)[C@@H](NC(=O)OC(C)(C)C)C(C)(C)C)C(=O)NS(=O)(=O)C1CC1,0.002,0.039,–
C=C[C@@H]1C[C@]1(NC(=O)[C@@H]1C[C@@](O)(c2ccc(-c3ccccc3)cc2)CN1C(=O)[C@@H](NC(=O)OC(C)(C)C)C(C)(C)C)C(=O)NS(=O)(=O)C1CC1,0.004,0.022 to 0.026,Papp [9]: 7.9 ×10⁻⁶ cm/s; Papp [10]: 21.1 ×10⁻⁶ cm/s; AUC at 4 h [11]: 0.9 µM·h; concentration at 4 h [12]: 128 ng/g; Activity [3]: -2%; Activity [4]: -4%; Activity [5]: 2%; Activity [6]: 7%; Activity [7]: 2%; Activity [8]: -2%
